Experimental data taken from patent publication US6737383B1, “Herbicidal oxadiazolidines” (priority 1999, dated 2004).

Legend:
bedstraw = experiment: Test B pre/postemergence bedstraw; type: in vivo, Galium aparine
Procedure, shortened: (§1)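 Herbicidal effect was estimated by eye on a ten-point control scale after plants spent twelve to sixteen days in a greenhouse following soil or foliar treatment. Foliar sprays targeted plants at one to four leaves; all doses were formulated in a non-phytotoxic solvent with surfactant.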

blackgrass = experiment: Test B pre/postemergence blackgrass; type: in vivo, Alopecurus myosuroides
Procedure, shortened: as §1

surinam grass = experiment: Test B pre/postemergence surinam grass; type: in vivo, Brachiaria decumbens
Procedure, shortened: as §1

corn = experiment: Test B pre/postemergence corn; type: in vivo, Zea mays
Procedure, shortened: as §1

giant foxtail = experiment: Test B pre/postemergence giant foxtail; type: in vivo, Setaria faberii
Procedure, shortened: as §1

morningglory = experiment: Test B pre/postemergence morningglory; type: in vivo, Ipomoea hederacea
Procedure, shortened: as §1

pigweed = experiment: Test B pre/postemergence pigweed; type: in vivo, Amaranthus retroflexus
Procedure, shortened: as §1

rape = experiment: Test B pre/postemergence rape; type: in vivo, Brassica napus
Procedure, shortened: as §1

soybean = experiment: Test B pre/postemergence soybean; type: in vivo, Glycine max
Procedure, shortened: as §1

sugar beet = experiment: Test B pre/postemergence sugar beet; type: in vivo, Beta vulgaris; conditions: for Plant response rating, Sugarbeets: Rate 250 g/ha
Procedure, shortened: as §1

velvetleaf = experiment: Test B pre/postemergence velvetleaf; type: in vivo, Abutilon theophrasti; conditions: for Plant response rating, Velvetleaf: Rate 250 g/ha
Procedure, shortened: as §1

purple nutsedge = experiment: Test B pre/postemergence purple nutsedge; type: in vivo, Cyperus rotundus
Procedure, shortened: as §1

rice = experiment: Test B flood test rice; type: in vivo, Oryza sativa
Procedure, shortened: (§2)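 Each value is a visual injury score relative to controls, with 10 meaning complete control and 0 no effect. Evaluation took place twelve to sixteen days after the 2-leaf-stage plants were treated and kept in the greenhouse.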

smallflower flatsedge = experiment: Test B flood test smallflower flatsedge; type: in vivo, Cyperus difformis
Procedure, shortened: as §2

duck salad = experiment: Test B flood test duck salad; type: in vivo, Heteranthera limosa
Procedure, shortened: as §2

bamyardgrass = experiment: Test B flood test barnyardgrass; type: in vivo, Echinochloa crus-galli
Procedure, shortened: as §2

[1] = Postemergence, Rate 62 g/ha, scale 0 to 10, 0 is no effect, 10 is complete control
[2] = Postemergence, Rate 250 g/ha, scale 0 to 10, 0 no effect, 10 complete control
[3] = Preemergence, Rate 62 g/ha, scale 0 to 10 (0 no effect, 10 complete control)
[4] = Preemergence, Rate 125 g/ha, scale 0 to 10 (0 no effect, 10 complete control)
[5] = Preemergence, Rate 250 g/ha, scale of 0 to 10 where 0 is no effect and 10 is complete control
[6] = Preemergence, Rate 500 g/ha, scale 0 to 10 (0 no effect, 10 complete control)
[7] = Rate 125 g/ha, Postemergence, scale 0 to 10, 0 no effect, 10 complete control
[8] = Postemergence, Rate 125 g/ha, scale of 0 to 10 where 0 is no effect and 10 is complete control
[9] = Rate 62 g/ha, Postemergence, scale of 0 to 10 where 0 is no effect and 10 is complete control
[10] = Rate 500 g/ha, Postemergence, scale 0 to 10, 0 no effect, 10 complete control
[11] = Rate 250 g/ha, Postemergence, scale 0 to 10, 0 is no effect, 10 is complete control
[12] = Preemergence, Rate 125 g/ha, 0 is no effect, 10 is complete control
[13] = Preemergence, scale of 0 to 10 where 0 is no effect and 10 is complete control
[14] = Postemergence, scale 0 to 10, 0 is no effect, 10 is complete control
[15] = Postemergence (flood test species), Rate 125 g/ha, scale of 0 to 10 where 0 is no effect and 10 is complete control
[16] = Rate 62 g/ha, Postemergence section, flood test species, scale of 0 to 10 where 0 is no effect and 10 is complete control
[17] = Rate 250 g/ha, Postemergence (flood test), scale 0 to 10, 0 is no effect, 10 is complete control
[18] = Rate 250 g/ha, headed Pre-emergence (flood test species), scale 0 to 10 (0 no effect, 10 complete control)
[19] = Rate 500 g/ha, headed Pre-emergence (flood test species), scale 0 to 10 (0 no effect, 10 complete control)
[20] = Rate 500 g/ha, listed under Postemergence (flood test species), scale 0 to 10, 0 no effect, 10 complete control
[21] = Rate 1000 g/ha, Pre-emergence (as headed), scale 0 to 10
[22] = Rate 2000 g/ha, Pre-emergence (as headed), scale 0 to 10
[23] = flood test, listed under Postemergence, Rate 250 g/ha, scale 0 to 10, 0 no effect, 10 complete control

## CCn1c(=O)on(C(=O)N(c2ccc(F)cc2F)C(C)C)c1=O [Compound 116]
bedstraw; [1]
  Bedstraw plant response rating: 0
bedstraw; [2]
  Bedstraw plant response rating: 9
bedstraw; [3]
  Bedstraw plant response rating: 2
bedstraw; [4]
  Plant response rating, Bedstraw: 8
bedstraw; [5]
  Plant response rating, Bedstraw: 9
bedstraw; [6]
  Bedstraw plant response rating: 9
bedstraw; [7]
  Bedstraw plant response rating: 6
blackgrass; [8]
  Blackgrass plant response rating: 9
blackgrass; [2]
  Blackgrass plant response rating: 9
blackgrass; [3]
  Blackgrass plant response rating: 9
blackgrass; [4]
  Plant response rating, Blackgrass: 9
blackgrass; [5]
  Plant response rating, Blackgrass: 10
blackgrass; [6]
  Blackgrass plant response rating: 10
blackgrass; [9]
  Blackgrass plant response rating: 9
blackgrass; [10]
  Blackgrass plant response rating: 9
Surinam grass; [1]
  B. signalgrass plant response rating: 8
Surinam grass; [2]
  B. signalgrass plant response rating: 9
Surinam grass; [3]
  B. signalgrass plant response rating: 4
Surinam grass; [4]
  Plant response rating, B. signalgrass: 8
Surinam grass; [5]
  Plant response rating, B. signalgrass: 10
Surinam grass; [6]
  B. signalgrass plant response rating: 10
Surinam grass; [7]
  B. signalgrass plant response rating: 9
Surinam grass; Rate 500 g/ha, Postemergence, scale of 0 to 10 where 0 is no effect and 10 is complete control
  B. signalgrass plant response rating: 9
corn; [8]
  Corn plant response rating: 0
corn; [2]
  Corn plant response rating: 2
corn; [3]
  Corn plant response rating: 0
corn; [4]
  Plant response rating, Corn: 2
corn; [5]
  Plant response rating, Corn: 6
corn; [6]
  Corn plant response rating: 9
corn; [9]
  Corn plant response rating: 0
corn; [10]
  Corn plant response rating: 7
Giant foxtail; [8]
  Giant foxtail plant response rating: 9
Giant foxtail; [2]
  Giant foxtail plant response rating: 9
Giant foxtail; [3]
  Giant foxtail plant response rating: 10
Giant foxtail; [4]
  Plant response rating, Giant foxtail: 10
Giant foxtail; [5]
  Plant response rating, Giant foxtail: 10
Giant foxtail; [6]
  Giant foxtail plant response rating: 10
Giant foxtail; [9]
  Giant foxtail plant response rating: 9
Giant foxtail; [10]
  Giant foxtail plant response rating: 9
morningglory; [8]
  Morningglory plant response rating: 4
morningglory; [2]
  Morningglory plant response rating: 4
morningglory; [3]
  Morningglory plant response rating: 0
morningglory; [4]
  Plant response rating, Morningglory: 0
morningglory; [5]
  Plant response rating, Morningglory: 4
morningglory; [6]
  Morningglory plant response rating: 8
morningglory; [9]
  Morningglory plant response rating: 2
morningglory; [10]
  Morningglory plant response rating: 7
pigweed; [8]
  Redroot pigweed plant response rating: 0
pigweed; [3]
  Redroot pigweed plant response rating: 10
pigweed; [4]
  Plant response rating, Redroot pigweed: 10
pigweed; [5]
  Plant response rating, Redroot pigweed: 10
pigweed; [6]
  Redroot pigweed plant response rating: 10
pigweed; [9]
  Redroot pigweed plant response rating: 0
pigweed; [11]
  Plant response rating, Redroot pigweed: 8
pigweed; [10]
  Redroot pigweed plant response rating: 8
rape; [8]
  Rape plant response rating: 0
rape; [2]
  Rape plant response rating: 8
rape; [3]
  Rape plant response rating: 6
rape; [4]
  Plant response rating, Rape: 9
rape; [5]
  Plant response rating, Rape: 10
rape; [6]
  Rape plant response rating: 10
rape; [9]
  Rape plant response rating: 0
rape; [10]
  Rape plant response rating: 9
soybean; [8]
  Soybean plant response rating: 6
soybean; [3]
  Soybean plant response rating: 0
soybean; [4]
  Plant response rating, Soybean: 7
soybean; [5]
  Plant response rating, Soybean: 9
soybean; [6]
  Soybean plant response rating: 9
soybean; [9]
  Soybean plant response rating: 3
soybean; [11]
  Plant response rating, Soybean: 6
soybean; [10]
  Soybean plant response rating: 8
Sugar beet; [8]
  Sugarbeets plant response rating: 3
Sugar beet; [3]
  Sugarbeets plant response rating: 9
Sugar beet; [12]
  Sugarbeets plant response rating (0 to 10 scale): 10
Sugar beet; [13]
  Plant response rating, Sugarbeets: 10
Sugar beet; [6]
  Sugarbeets plant response rating: 10
Sugar beet; [9]
  Sugarbeets plant response rating: 2
Sugar beet; [14]
  Plant response rating, Sugarbeets: 8
Sugar beet; [10]
  Sugarbeets plant response rating: 8
velvetleaf; [8]
  Velvetleaf plant response rating: 4
velvetleaf; [3]
  Velvetleaf plant response rating: 8
velvetleaf; [12]
  Velvetleaf plant response rating (0 to 10 scale): 9
velvetleaf; [13]
  Plant response rating, Velvetleaf: 10
velvetleaf; [6]
  Velvetleaf plant response rating: 10
velvetleaf; [9]
  Velvetleaf plant response rating: 4
velvetleaf; [14]
  Plant response rating, Velvetleaf: 7
velvetleaf; [10]
  Velvetleaf plant response rating: 8
Purple nutsedge; [8]
  Nutsedge plant response rating: 7
Purple nutsedge; [2]
  Nutsedge plant response rating: 8
Purple nutsedge; [3]
  Nutsedge plant response rating: 0
Purple nutsedge; [4]
  Plant response rating, Nutsedge: 0
Purple nutsedge; [5]
  Plant response rating, Nutsedge: 0
Purple nutsedge; [6]
  Nutsedge plant response rating: 0
Purple nutsedge; [9]
  Nutsedge plant response rating: 5
Purple nutsedge; [10]
  Nutsedge plant response rating: 9
rice; [15]
  Rice plant response rating: 0
rice; [16]
  Rice plant response rating: 0
rice; [17]
  Plant response rating, Rice: 0
rice; [18]
  Rice plant response rating: 0
rice; [19]
  Plant response rating, Rice: 0
rice; [20]
  Rice plant response rating: 0
rice; [21]
  Rice plant response rating: 0
rice; [22]
  Rice plant response rating: 4
Smallflower flatsedge; [15]
  S. Flatsedge plant response rating: 0
Smallflower flatsedge; Pre-emergence, Rate 1000 g/ha, scale 0 to 10 (0 no effect, 10 complete control)
  S. Flatsedge plant response rating: 0
Smallflower flatsedge; [16]
  S. Flatsedge plant response rating: 0
Smallflower flatsedge; [17]
  Plant response rating, S. Flatsedge: 0
Smallflower flatsedge; [18]
  S. Flatsedge plant response rating: 0
Smallflower flatsedge; [19]
  Plant response rating, S. Flatsedge: 0
Smallflower flatsedge; [20]
  S. Flatsedge plant response rating: 0
Smallflower flatsedge; [22]
  S. Flatsedge plant response rating: 9
Duck salad; [15]
  Ducksalad plant response rating: 0
Duck salad; [16]
  Ducksalad plant response rating: 0
Duck salad; [18]
  Ducksalad plant response rating: 0
Duck salad; [19]
  Plant response rating, Ducksalad: 0
Duck salad; [20]
  Ducksalad plant response rating: 0
Duck salad; [21]
  Ducksalad plant response rating: 1
Duck salad; [22]
  Ducksalad plant response rating: 8
Duck salad; [23]
  Ducksalad plant response rating: 0
bamyardgrass; [1]
  Barnyardgrass plant response rating: 0
bamyardgrass; Rate 125 g/ha, Postemergence section (flood test species), scale 0 to 10, 0 no effect, 10 complete control
  Barnyardgrass plant response rating: 0
bamyardgrass; [18]
  Barnyardgrass plant response rating: 0
bamyardgrass; [19]
  Plant response rating, Barnyardgrass: 0
bamyardgrass; [20]
  Barnyardgrass plant response rating: 4
bamyardgrass; [21]
  Barnyardgrass plant response rating: 0
bamyardgrass; Rate 2000 g/ha, Pre-emergence (as headed), scale 0 to 10, 0 no effect, 10 complete control
  Barnyardgrass plant response rating: 9
bamyardgrass; [23]
  Barnyardgrass plant response rating: 0
